Measurements as given in the Deep4Chem optical property database.

Assay: solvent given as SMILES

## O=C1C2=C(O[B-](F)(F)[n+]3c2ccc2ccccc23)c2cccc3c(N4CCOCC4)ccc1c23
In C1CCOC1
  emission maximum: 596 nm
In CC#N
  emission maximum: 620 nm
In CCO
  emission maximum: 584 nm
In CO
  emission maximum: 564 nm
In ClCCl
  emission maximum: 588 nm

## CCOC(=O)c1c(-c2cc3ccccc3oc2=O)nn(-c2cccc(F)c2)c1C(=O)OCC
In ClCCl
  emission maximum: 401 nm

## CCCc1ccc(C#Cc2ccc3nc4ccc(C#Cc5ccc(CCC)cc5)cn4c(=O)c3c2)cc1
In ClCCl
  emission maximum: 480 nm

## COc1ccc(C2=C3C=C(/C=C/C(=O)OC(C)(C)C)C=[N+]3[B-](F)(F)n3cccc32)cc1
In ClCCl
  emission maximum: 572 nm

## c1ccc(-c2nc(-c3ccccc3)nc(-c3ccc(-n4c5ccccc5c5c6c(ccc54)C4(c5ccccc5-c5ccccc54)c4ccccc4-6)cc3)n2)cc1
In C1CCOC1
  emission maximum: 488.19 nm
In C1COCCO1
  emission maximum: 453.7 nm
In CN(C)C=O
  emission maximum: 525.23 nm
In Cc1ccccc1
  emission maximum: 444 nm
In ClC(Cl)Cl
  emission maximum: 496.99 nm

## Cc1cc(C#Cc2ccccc2)c2ccc3c(C#Cc4ccccc4)cc(C#Cc4ccccc4)c4ccc1c2c43
In CS(C)=O
  emission maximum: 461 nm
In ClC(Cl)(Cl)Cl
  emission maximum: 460 nm

## COc1ccc(C2=Cc3ccc4ccccc4[n+]3[B-](F)(F)O2)cc1
In ClC(Cl)Cl
  emission maximum: 457 nm

## CCCCCCN1C(=O)c2cc(-c3ccc(-n4c5ccccc5c5ccccc54)cc3)c(-c3ccc(-n4c5ccccc5c5ccccc54)cc3)cc2C1=O
In ClC(Cl)Cl
  emission maximum: 548 nm
In c1ccc2c(c1)c1ccccc1n2-c1ccc(-c2ccc(-n3c4ccccc4c4ccccc43)cc2)cc1
  emission maximum: 481 nm

## CCCCCc1c(C)c2c3ccccc3[nH]c2c2ccccc12
In ClCCl
  emission maximum: 369 nm

## Cc1ccc2c(c1)C(c1ccccc1)(c1ccccc1)c1cc(C)ccc1N2c1ccc2c(c1)N(c1ccccc1)c1ccccc1B2c1c(C(C)C)cc(C(C)C)cc1C(C)C
In Cc1ccccc1
  emission maximum: 449 nm
In O=P(c1ccccc1)(c1ccccc1)c1ccc2oc3ccc(P(=O)(c4ccccc4)c4ccccc4)cc3c2c1
  emission maximum: 465 nm

## CC1=[N+]2C(=C(c3ccccc3)c3c4c(c(C)n3[B-]2(F)F)CCc2ccccc2-4)C2=C1CCc1ccccc12
In CC#N
  emission maximum: 612 nm

## CC(C)[Si](C#Cc1ccc(C#C[Si](C(C)C)(C(C)C)C(C)C)c2nc3c(nc12)C1c2ccccc2C3c2ccccc21)(C(C)C)C(C)C
In CCCCCC
  emission maximum: 404 nm

## COc1cc2c(cc1/C=C(\C#N)c1nc3ccccc3s1)c1ccccc1n2C
In C1CCOC1
  emission maximum: 499 nm
In CC#N
  emission maximum: 509 nm
In CCOC(C)=O
  emission maximum: 493 nm
In CN(C)C=O
  emission maximum: 508 nm
In CO
  emission maximum: 510 nm
In CS(C)=O
  emission maximum: 518 nm
In Cc1ccccc1
  emission maximum: 494 nm
In ClC(Cl)Cl
  emission maximum: 504 nm
In ClCCl
  emission maximum: 501 nm

## Cn1c(=O)nc2n(C)c3ccccc3nc-2c1=O
In CC1CCCO1
  emission maximum: 490 nm
In CC#N
  emission maximum: 529 nm

## CCCCC1(c2ccc(OC)cc2)Nc2ccccc2N=C1c1ccc(OC)cc1 (stereo not given)
In C1CCOC1
  emission maximum: 513 nm
In CC#N
  emission maximum: 522 nm
In CCCCCC
  emission maximum: 485 nm
In CN(C)C=O
  emission maximum: 525 nm
In Cc1ccccc1
  emission maximum: 501 nm
In ClC(Cl)Cl
  emission maximum: 507 nm

## c1csc(-c2cnc(-c3cccs3)c3nonc23)c1
In C1CCCCC1
  emission maximum: 567 nm
In CC(C)=O
  emission maximum: 612 nm
In CCCCCC
  emission maximum: 564 nm
In CCCO
  emission maximum: 611 nm
In CCO
  emission maximum: 614 nm
In CCOCC
  emission maximum: 587 nm
In CO
  emission maximum: 616 nm
In Cc1ccccc1
  emission maximum: 600 nm
In ClC(Cl)(Cl)Cl
  emission maximum: 580 nm
In ClC(Cl)Cl
  emission maximum: 611 nm
In O=[N+]([O-])c1ccccc1
  emission maximum: 614 nm
In OCC(O)CO
  emission maximum: 633 nm
In OCc1ccccc1
  emission maximum: 628 nm
In c1ccc2ncccc2c1
  emission maximum: 625 nm
In c1ccccc1
  emission maximum: 601 nm
In c1ccncc1
  emission maximum: 617 nm

## Oc1ccc2ccccc2c1C1Nc2cccc3cccc(c23)N1
In CC#N
  emission maximum: 540 nm
In CO
  emission maximum: 476 nm
In CS(C)=O
  emission maximum: 528 nm
In Cc1ccccc1
  emission maximum: 468 nm

## COc1cc(OC)cc(C(=O)OCc2c(C)c(=O)n3c(=O)c(C)c(C)n23)c1
In CCO
  emission maximum: 462 nm

## CCN(CC)c1ccc(/C=C2\CC/C(=C\c3ccc(N(c4ccccc4)c4ccccc4)cc3)C2=C(C#N)C#N)cc1
In CN(C)C=O
  emission maximum: 716 nm

## O=C1C2=C3c4sccc4C=CN3C(=O)C2=C2c3sccc3C=CN12
In CN(C)C=O
  emission maximum: 618 nm
In ClC(Cl)Cl
  emission maximum: 609 nm

## Cc1ccc2c(CC(=O)NN)coc2c1
In C1CCOC1
  emission maximum: 400 nm
In CC#N
  emission maximum: 397 nm
In CC(C)=O
  emission maximum: 402 nm
In CCCCO
  emission maximum: 398 nm
In CCCO
  emission maximum: 394 nm
In CCO
  emission maximum: 397 nm
In CCOC(C)=O
  emission maximum: 390 nm
In CN(C)C=O
  emission maximum: 412 nm
In CO
  emission maximum: 391 nm
In ClCCl
  emission maximum: 399 nm

## COc1ccc(C2=N/C(=C\c3ccccc3)C(=O)O2)cc1OC
In C1COCCO1
  emission maximum: 447 nm

## Cc1ccc(C2=C3C=CC(Cl)=[N+]3[B-](F)(F)n3c(Cl)ccc32)cc1
In C1CCCCC1
  emission maximum: 525 nm
In C1CCOC1
  emission maximum: 523 nm
In CC#N
  emission maximum: 520 nm
In CCOC(C)=O
  emission maximum: 521 nm
In CO
  emission maximum: 519 nm
In Cc1ccccc1
  emission maximum: 529 nm
In ClC(Cl)Cl
  emission maximum: 526 nm

## CCCCN1C(=O)C(=C/C=C/C=C/C=C2N(CCCC)c3ccccc3N2CCCC)C(=O)N(CCCC)C1=S
In CC#N
  emission maximum: 688 nm
In CCCCCC
  emission maximum: 707 nm
In CCO
  emission maximum: 685 nm
In CN(C)C=O
  emission maximum: 690 nm
In CO
  emission maximum: 682 nm
In Cc1ccccc1
  emission maximum: 715 nm
In ClC(Cl)Cl
  emission maximum: 702 nm
In ClCCl
  emission maximum: 697 nm
In OCC(F)(F)F
  emission maximum: 663 nm

## CNc1cc2nc3cc(Cl)c(Cl)cc3nc2cc1NC
In CCO
  emission maximum: 541 nm

## N#C/C(=C\c1ccc(Cl)cc1)c1nc(-c2ccccc2)cs1
In CC#N
  emission maximum: 480 nm

## CCB1c2ccccc2Nc2ccccc21
In ClCCl
  emission maximum: 494 nm

## COc1ccc2cc(-c3cccc(-c4cc5ccc(OC)cc5oc4=O)c3)c(=O)oc2c1
In ClC(Cl)Cl
  emission maximum: 426 nm

## CC(C)[Si](C#Cc1c2cc3ccccc3cc2c(C#C[Si](C(C)C)(C(C)C)C(C)C)c2nc3c(ccc4ccccc43)nc12)(C(C)C)C(C)C
In CCCCCC
  emission maximum: 661 nm

## O=c1c2cc(-n3c4ccccc4c4ccccc43)ccc2sc2ccc(-n3c4ccccc4c4ccccc43)cc12
In C1CCOC1
  emission maximum: 460 nm
In CCCCCC
  emission maximum: 438 nm
In Cc1ccccc1
  emission maximum: 455.5 nm
In ClC(Cl)Cl
  emission maximum: 493.5 nm
In ClCCl
  emission maximum: 495 nm

## CC1=C(C)C(c2c(C)c(C)c3n2[B-](F)(F)[N+]2=C(C)C(C)=C(C)C2=C3)=[N+]2C1=Cc1c(C)c(C)c(C)n1[B-]2(F)F
In ClCCl
  emission maximum: 650 nm

## O=C1NC(=O)/C(=C\c2ccccc2O)S1
In C1CCCCC1
  emission maximum: 397 nm
In C1COCCO1
  emission maximum: 418 nm
In CC#N
  emission maximum: 428 nm
In CN(C)C=O
  emission maximum: 424 nm
In CO
  emission maximum: 428 nm
In O
  emission maximum: 480 nm
In OCC(O)CO
  emission maximum: 451 nm
In OCCO
  emission maximum: 440 nm

## O=C1C(=Cc2ccc(Br)cc2)Oc2cccc(O)c21
In CC#N
  emission maximum: 487 nm

## COc1ccc(/C=C/C2=[O+][B-](F)(F)OC(/C=C/c3ccc(OC)cc3)=C2c2ccc(OC)cc2)cc1
In ClCCl
  emission maximum: 571 nm

## COc1ccc2c3c(c4ccc(OC)cc4c2c1)=[N+]1C(=C(c2c(C)cc(C)cc2C)c2cc4c5ccc(OC)cc5c5cc(OC)ccc5c4n2[B-]1(F)F)C=3
In C1CCCCC1
  emission maximum: 700 nm
In C1CCOC1
  emission maximum: 712 nm
In CC#N
  emission maximum: 712 nm
In Cc1ccccc1
  emission maximum: 712 nm
In ClCCl
  emission maximum: 711 nm

## CCC1(CC)c2cc(-c3ccc(C(C)(C)C)cc3)ccc2-c2ccc(-c3ccc4c(c3)C(CC)(CC)c3cc(-c5ccc6c(c5)C(CC)(CC)c5cc(-c7ccc(C(C)(C)C)cc7)ccc5-6)ccc3-4)cc21
In CO
  emission maximum: 402.3 nm

## Cc1cn2cc(-c3ccc([N+](=O)[O-])cc3)[n-][n+]2c1
In ClCCl
  emission maximum: 575 nm

## BrCCCCCCCCCCCCOc1cc2ccc3cccc4ccc(c1)c2c34
In Cc1ccccc1
  emission maximum: 384 nm

## c1cc2ccc3ccc4cc3c2cc1c1ccc2c(c1)c1cc(ccc1[C@]13OCCO[C@]21OCCO3)c1ccc2c(c1)c1cc4ccc1[C@]13OCCO[C@]21OCCO3
In Cc1ccccc1
  emission maximum: 388 nm

## COc1ccc2ccccc2c1C1=CC(c2ccccc2)=C(c2ccccc2)C1
In ClCCl
  emission maximum: 471 nm

## Cc1cc(-c2nc(-c3ccccc3)nc(-c3ccccc3)n2)ccc1N1c2ccccc2CCc2ccccc21
In Cc1ccccc1
  emission maximum: 481.75 nm

## CCN(CC)c1ccc2cc3ccc(=[N+](CC)CC)cc-3oc2c1
In CC#N
  emission maximum: 549 nm
In CCO
  emission maximum: 557 nm
In CN(C)C=O
  emission maximum: 532 nm
In O
  emission maximum: 555 nm

## C(#Cc1ncnc2ccccc12)c1ccc(N(c2ccccc2)c2ccccc2)cc1
In C1CCCCC1
  emission maximum: 433 nm
In C1CCOC1
  emission maximum: 535 nm
In CC#N
  emission maximum: 610 nm
In CS(C)=O
  emission maximum: 616 nm
In ClCCl
  emission maximum: 565 nm

## CCCCCCn1c2cc(/C=C(\C#N)c3cccs3)ccc2c2ccc(/C=C(\C#N)c3cccs3)cc21
In ClC(Cl)Cl
  emission maximum: 469.48 nm

## COc1cc2c3c4c(c5ccc(C(C)(C)C)cc5c5c(OC)cc(OC)c(c2c(OC)c1OC)c45)=[N+]1C3=Nc2c3c4cc(OC)c(OC)c(OC)c4c4c(OC)cc(OC)c5c6cc(C(C)(C)C)ccc6c(c3c54)n2[B-]1(F)F
In Cc1ccccc1
  emission maximum: 907 nm

## C(=C\c1c2ccccc2cc2ccccc12)/c1ccc2ccccc2n1
In CC1CCCCC1
  emission maximum: 492 nm
In CC#N
  emission maximum: 510 nm

## O=C1c2cccc3c(C#CC#Cc4ccc5c6c(cccc46)C(=O)N(c4ccccc4)C5=O)ccc(c23)C(=O)N1c1ccccc1
In ClCCl
  emission maximum: 440 nm

## O=Cc1ccc(C#CC(C#Cc2ccc(C=O)s2)=Cc2ccc(C=C(C#Cc3ccc(C=O)s3)C#Cc3ccc(C=O)s3)s2)s1
In ClC(Cl)Cl
  emission maximum: 595 nm

## CC1(C)C(/C=C/C2=C(c3ccc(C(=O)O)cc3)C(=C/C=C3/N(CCCCS(=O)(=O)[O-])c4ccc5ccccc5c4C3(C)C)/CCC2)=[N+](CCCCS(=O)(=O)[O-])c2ccc3ccccc3c21
In CO
  emission maximum: 811 nm

## CC(C)(C)c1cc(-c2c3cc(c(-c4cc(C(C)(C)C)cc(C(C)(C)C)c4)c4ccc([nH]4)c(-c4ccc([N+](=O)[O-])cc4)c4nc(c(-c5ccc([N+](=O)[O-])cc5)c5ccc2[nH]5)C=C4)N=C3)cc(C(C)(C)C)c1
In ClCCl
  emission maximum: 741 nm
